From ChEMBL document CHEMBL3991601, “The target landscape of clinical kinase drugs” (Science, 2017)
The source made the active and inactive calls. Cut-off read from the data, not from the text of the source, for most assays here: actives have a measured Kd and inactives only a lower limit.

Assays:
[1] = target: Adenosine kinase (Homo sapiens, UniProt P55263)
[2] = target: Calcium/calmodulin-dependent protein kinase type II subunit delta (Homo sapiens, UniProt Q13557)
[3] = target: Calcium/calmodulin-dependent protein kinase type II subunit gamma (Homo sapiens, UniProt Q13555)
Calcium/calmodulin-dependent protein kinase type II subunit gamma, sequence (Q13555 whole entry): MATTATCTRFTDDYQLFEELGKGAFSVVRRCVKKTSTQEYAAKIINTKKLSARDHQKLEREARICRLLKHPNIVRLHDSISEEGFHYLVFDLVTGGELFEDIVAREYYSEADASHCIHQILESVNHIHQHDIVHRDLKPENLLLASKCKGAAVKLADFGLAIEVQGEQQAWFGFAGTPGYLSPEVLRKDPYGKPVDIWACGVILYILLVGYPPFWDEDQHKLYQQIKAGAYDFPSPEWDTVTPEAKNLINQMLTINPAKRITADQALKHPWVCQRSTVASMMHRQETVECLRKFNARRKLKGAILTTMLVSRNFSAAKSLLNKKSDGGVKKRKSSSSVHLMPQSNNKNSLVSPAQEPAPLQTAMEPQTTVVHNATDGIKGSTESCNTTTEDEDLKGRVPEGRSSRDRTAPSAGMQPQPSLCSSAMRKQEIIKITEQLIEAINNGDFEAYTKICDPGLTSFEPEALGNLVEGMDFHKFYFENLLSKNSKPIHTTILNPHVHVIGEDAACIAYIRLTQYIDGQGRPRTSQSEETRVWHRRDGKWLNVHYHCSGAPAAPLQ

[4] = target: Cyclin-dependent kinase 17 (Homo sapiens, UniProt Q00537)
Cyclin-dependent kinase 17, sequence (Q00537 whole entry): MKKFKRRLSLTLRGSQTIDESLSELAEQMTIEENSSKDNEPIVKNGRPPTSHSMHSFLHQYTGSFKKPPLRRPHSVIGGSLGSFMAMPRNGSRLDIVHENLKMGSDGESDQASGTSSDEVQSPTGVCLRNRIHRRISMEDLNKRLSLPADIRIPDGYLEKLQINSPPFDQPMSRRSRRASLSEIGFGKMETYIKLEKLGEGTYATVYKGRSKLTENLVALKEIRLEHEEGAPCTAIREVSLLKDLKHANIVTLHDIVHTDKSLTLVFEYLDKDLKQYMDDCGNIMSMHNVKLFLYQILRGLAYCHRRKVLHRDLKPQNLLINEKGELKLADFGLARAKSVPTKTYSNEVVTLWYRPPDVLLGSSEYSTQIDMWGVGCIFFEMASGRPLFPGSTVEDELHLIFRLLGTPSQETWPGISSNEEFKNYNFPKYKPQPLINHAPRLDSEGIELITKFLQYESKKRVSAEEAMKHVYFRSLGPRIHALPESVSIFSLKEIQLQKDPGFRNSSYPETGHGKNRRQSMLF

[5] = target: T1, Serine/threonine-protein kinase Chk1 (Homo sapiens, UniProt O14757)
T1 sequence (O14757 whole entry): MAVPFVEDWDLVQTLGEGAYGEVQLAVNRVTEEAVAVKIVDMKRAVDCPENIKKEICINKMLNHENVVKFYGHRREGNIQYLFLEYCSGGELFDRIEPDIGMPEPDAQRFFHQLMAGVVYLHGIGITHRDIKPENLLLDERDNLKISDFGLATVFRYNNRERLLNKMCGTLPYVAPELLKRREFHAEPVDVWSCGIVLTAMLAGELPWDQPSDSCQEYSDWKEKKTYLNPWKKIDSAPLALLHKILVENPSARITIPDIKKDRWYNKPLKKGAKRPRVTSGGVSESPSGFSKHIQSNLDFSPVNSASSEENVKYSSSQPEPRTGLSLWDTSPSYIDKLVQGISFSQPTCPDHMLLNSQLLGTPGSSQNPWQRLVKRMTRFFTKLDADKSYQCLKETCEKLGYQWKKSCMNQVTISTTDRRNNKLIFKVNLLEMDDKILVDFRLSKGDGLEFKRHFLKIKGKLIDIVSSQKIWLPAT

[6] = target: T2, Delta(24)-sterol reductase (Homo sapiens, UniProt Q15392)
T2 sequence (Q15392 whole entry): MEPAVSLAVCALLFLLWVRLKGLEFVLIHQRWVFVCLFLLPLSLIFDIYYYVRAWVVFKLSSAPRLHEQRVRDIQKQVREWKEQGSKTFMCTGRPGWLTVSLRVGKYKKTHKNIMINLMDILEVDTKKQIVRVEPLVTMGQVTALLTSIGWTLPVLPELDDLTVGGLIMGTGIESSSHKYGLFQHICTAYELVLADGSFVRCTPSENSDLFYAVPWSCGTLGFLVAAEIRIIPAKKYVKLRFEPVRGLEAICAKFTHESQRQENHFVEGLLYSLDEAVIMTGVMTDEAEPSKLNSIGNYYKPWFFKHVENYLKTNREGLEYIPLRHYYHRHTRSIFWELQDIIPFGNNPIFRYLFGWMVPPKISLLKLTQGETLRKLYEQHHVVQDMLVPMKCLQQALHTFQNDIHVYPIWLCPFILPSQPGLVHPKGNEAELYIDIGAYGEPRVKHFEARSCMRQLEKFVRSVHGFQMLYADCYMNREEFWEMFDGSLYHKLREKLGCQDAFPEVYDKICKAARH

[7] = target: Tyrosine-protein kinase Fer (Homo sapiens, UniProt P16591)
Tyrosine-protein kinase Fer, sequence (P16591 whole entry): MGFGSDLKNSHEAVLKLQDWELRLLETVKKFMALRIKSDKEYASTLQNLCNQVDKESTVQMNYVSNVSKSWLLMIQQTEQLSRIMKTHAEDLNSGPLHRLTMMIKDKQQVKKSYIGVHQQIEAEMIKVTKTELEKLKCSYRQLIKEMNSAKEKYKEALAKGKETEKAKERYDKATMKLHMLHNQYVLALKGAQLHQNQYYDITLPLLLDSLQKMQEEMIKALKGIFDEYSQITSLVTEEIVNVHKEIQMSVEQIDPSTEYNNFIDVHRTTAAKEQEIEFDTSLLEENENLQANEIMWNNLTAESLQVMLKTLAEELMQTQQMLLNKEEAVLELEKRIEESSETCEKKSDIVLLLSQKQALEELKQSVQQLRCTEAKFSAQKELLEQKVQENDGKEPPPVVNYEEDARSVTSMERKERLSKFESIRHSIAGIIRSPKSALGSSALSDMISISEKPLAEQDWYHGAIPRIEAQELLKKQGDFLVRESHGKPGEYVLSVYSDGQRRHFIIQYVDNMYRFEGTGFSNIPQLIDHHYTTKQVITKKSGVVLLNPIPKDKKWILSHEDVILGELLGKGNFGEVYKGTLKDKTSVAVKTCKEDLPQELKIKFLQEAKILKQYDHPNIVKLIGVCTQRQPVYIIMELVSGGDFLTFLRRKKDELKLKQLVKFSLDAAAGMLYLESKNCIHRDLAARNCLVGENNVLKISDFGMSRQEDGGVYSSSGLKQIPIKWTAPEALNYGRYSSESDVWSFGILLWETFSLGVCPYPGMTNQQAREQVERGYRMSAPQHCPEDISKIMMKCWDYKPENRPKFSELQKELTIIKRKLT

[8] = target: Inosine-5'-monophosphate dehydrogenase 2 (Homo sapiens, UniProt P12268)
[9] = target: T3, MAP kinase-activated protein kinase 5 (Homo sapiens, UniProt Q8IW41)
T3 sequence (Q8IW41 whole entry): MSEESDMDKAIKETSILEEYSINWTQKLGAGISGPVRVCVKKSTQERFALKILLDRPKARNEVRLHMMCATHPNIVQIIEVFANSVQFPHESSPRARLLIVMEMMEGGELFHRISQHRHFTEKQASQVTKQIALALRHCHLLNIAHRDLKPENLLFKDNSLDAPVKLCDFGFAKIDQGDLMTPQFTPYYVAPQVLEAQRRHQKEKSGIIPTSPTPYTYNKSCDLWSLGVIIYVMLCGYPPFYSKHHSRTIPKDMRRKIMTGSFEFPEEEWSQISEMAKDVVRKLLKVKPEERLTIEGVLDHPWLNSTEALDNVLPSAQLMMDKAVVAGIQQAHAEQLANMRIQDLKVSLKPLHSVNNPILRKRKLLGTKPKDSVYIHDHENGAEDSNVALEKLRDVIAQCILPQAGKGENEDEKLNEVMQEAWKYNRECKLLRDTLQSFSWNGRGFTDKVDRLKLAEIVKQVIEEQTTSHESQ

[10] = target: T4, Serine/threonine-protein kinase D3 (Homo sapiens, UniProt O94806)
T4 sequence (O94806 whole entry): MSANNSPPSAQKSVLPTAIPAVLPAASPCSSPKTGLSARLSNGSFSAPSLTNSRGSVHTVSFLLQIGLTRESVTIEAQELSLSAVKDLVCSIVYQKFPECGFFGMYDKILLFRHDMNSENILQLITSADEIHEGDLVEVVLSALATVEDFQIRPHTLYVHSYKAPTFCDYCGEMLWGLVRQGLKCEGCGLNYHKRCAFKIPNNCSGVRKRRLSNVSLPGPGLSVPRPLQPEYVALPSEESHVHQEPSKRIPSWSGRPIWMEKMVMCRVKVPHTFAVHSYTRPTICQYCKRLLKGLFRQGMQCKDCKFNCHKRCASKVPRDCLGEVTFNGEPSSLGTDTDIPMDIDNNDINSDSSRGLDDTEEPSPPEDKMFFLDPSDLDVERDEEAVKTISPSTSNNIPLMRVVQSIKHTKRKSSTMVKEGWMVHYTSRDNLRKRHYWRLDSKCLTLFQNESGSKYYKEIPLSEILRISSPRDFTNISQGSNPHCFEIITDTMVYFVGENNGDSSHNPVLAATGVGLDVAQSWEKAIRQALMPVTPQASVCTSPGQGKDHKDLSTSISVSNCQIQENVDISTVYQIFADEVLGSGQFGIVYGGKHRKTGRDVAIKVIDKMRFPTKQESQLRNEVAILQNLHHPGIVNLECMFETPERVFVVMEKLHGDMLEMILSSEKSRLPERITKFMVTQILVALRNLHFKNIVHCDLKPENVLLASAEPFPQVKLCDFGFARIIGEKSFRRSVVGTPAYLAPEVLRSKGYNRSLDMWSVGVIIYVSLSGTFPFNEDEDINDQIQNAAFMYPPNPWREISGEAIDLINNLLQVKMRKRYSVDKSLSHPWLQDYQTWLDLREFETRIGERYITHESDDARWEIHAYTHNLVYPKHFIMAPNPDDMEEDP
Note: in the data inactive means no Kd found up to 30 µM.

Calcium/calmodulin-dependent protein kinase type II subunit delta, sequence (Q13557 whole entry): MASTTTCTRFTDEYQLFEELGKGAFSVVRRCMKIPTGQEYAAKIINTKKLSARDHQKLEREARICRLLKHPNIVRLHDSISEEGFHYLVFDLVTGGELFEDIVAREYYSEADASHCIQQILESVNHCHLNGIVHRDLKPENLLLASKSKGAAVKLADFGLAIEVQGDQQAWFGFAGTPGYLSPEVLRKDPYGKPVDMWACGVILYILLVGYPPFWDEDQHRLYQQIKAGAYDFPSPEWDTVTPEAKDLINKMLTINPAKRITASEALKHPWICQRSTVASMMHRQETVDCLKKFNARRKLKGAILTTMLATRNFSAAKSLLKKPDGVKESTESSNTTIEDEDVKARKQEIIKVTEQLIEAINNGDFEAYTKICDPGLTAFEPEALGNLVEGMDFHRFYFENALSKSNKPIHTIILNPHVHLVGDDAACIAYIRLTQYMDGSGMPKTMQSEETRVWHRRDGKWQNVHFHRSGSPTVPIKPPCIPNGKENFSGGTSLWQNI
Adenosine kinase, sequence (P55263 whole entry): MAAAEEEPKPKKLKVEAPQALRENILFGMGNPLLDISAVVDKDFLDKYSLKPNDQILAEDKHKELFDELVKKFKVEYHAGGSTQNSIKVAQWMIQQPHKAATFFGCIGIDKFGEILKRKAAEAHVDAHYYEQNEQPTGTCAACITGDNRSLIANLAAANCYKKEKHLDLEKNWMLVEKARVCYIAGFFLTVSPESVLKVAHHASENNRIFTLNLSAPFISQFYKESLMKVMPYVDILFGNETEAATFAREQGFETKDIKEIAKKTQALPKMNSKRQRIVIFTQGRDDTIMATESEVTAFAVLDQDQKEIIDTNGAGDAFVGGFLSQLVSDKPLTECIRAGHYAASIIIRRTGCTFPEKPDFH

Kd [1]	Kd [2]	Kd [3]	Kd [4]	Kd [5]	Kd [6]	Kd [7]	Kd [8]	Kd [9]	Kd [10]	SMILES
> 30 µM (inactive)	> 30 µM (inactive)	> 30 µM (inactive)	> 30 µM (inactive)	> 30 µM (inactive)	> 30 µM (inactive)	> 30 µM (inactive)	> 30 µM (inactive)	> 30 µM (inactive)	1.93 µM (active)	CCn1cc(-c2ccnc3[nH]c(-c4cccc(CN(C)C)c4)cc23)c(-c2ccc(NC(=O)N(C)C)cc2)n1 [GSK-1070916]
> 30 µM (inactive)	> 30 µM (inactive)	> 30 µM (inactive)	> 30 µM (inactive)	> 30 µM (inactive)	> 30 µM (inactive)	> 30 µM (inactive)	> 30 µM (inactive)	> 30 µM (inactive)	> 30 µM (inactive)	NC1(c2ccc(-c3nc4ccn5c(=O)[nH]nc5c4cc3-c3ccccc3)cc2)CCC1 [MK-2206]
> 30 µM (inactive)	> 30 µM (inactive)	> 30 µM (inactive)	> 30 µM (inactive)	> 30 µM (inactive)	> 30 µM (inactive)	> 30 µM (inactive)	> 30 µM (inactive)	> 30 µM (inactive)	> 30 µM (inactive)	CN(C[C@@H]1COCCO1)S(=O)(=O)Nc1ccc2ccc3ncc(-c4cnn(C)c4)cc3c(=O)c2c1 [MK-2461]
> 30 µM (inactive)	> 30 µM (inactive)	> 30 µM (inactive)	> 30 µM (inactive)	> 30 µM (inactive)	> 30 µM (inactive)	> 30 µM (inactive)	> 30 µM (inactive)	> 30 µM (inactive)	> 30 µM (inactive)	Cn1cc(-c2cnc3ccc4ccc(CS(=O)(=O)NCc5ccccn5)cc4c(=O)c3c2)cn1 [MK-8033]

More lines, now with the values behind:

SMILES	Kd [1]	Kd [2]	Kd [3]	Kd [4]	Kd [5]	Kd [6]	Kd [7]	Kd [8]	Kd [9]	Kd [10]
O=C(Nc1nc2cccc(-c3ccc(CN4CCS(=O)(=O)CC4)cc3)n2n1)C1CC1 [FILGOTINIB]	> 30 µM (inactive)	> 30 µM (inactive)	> 30 µM (inactive)	> 30 µM (inactive)	> 30 µM (inactive)	> 30 µM (inactive)	> 30 µM (inactive)	> 30 µM (inactive)	> 30 µM (inactive)	> 30 µM (inactive)
Cc1cccc(-c2nn3c(c2-c2ccnc4ccc(C(N)=O)cc24)CCC3)n1 [GALUNISERTIB]	> 30 µM (inactive)	> 30 µM (inactive)	> 30 µM (inactive)	> 30 µM (inactive)	> 30 µM (inactive)	> 30 µM (inactive)	> 30 µM (inactive)	> 30 µM (inactive)	> 30 µM (inactive)	> 30 µM (inactive)
CNC(=O)c1cccc2cc(Oc3ccnc4cc(OCC5(N)CC5)c(OC)cc34)ccc12 [LUCITANIB]	> 30 µM (inactive)	> 30 µM (inactive)	> 30 µM (inactive)	> 30 µM (inactive)	> 30 µM (inactive)	> 30 µM (inactive)	> 30 µM (inactive)	> 30 µM (inactive)	> 30 µM (inactive)	> 30 µM (inactive)
COc1ncc(-c2ccc3nccc(-c4ccnnc4)c3c2)cc1NS(=O)(=O)c1ccc(F)cc1F [OMIPALISIB]	> 30 µM (inactive)	> 30 µM (inactive)	> 30 µM (inactive)	> 30 µM (inactive)	> 30 µM (inactive)	> 30 µM (inactive)	> 30 µM (inactive)	> 30 µM (inactive)	> 30 µM (inactive)	> 30 µM (inactive)
CCOc1cc2ncc(C#N)c(Nc3ccc(F)c(Cl)c3)c2cc1NC(=O)/C=C/CN(C)C [PELITINIB]	> 30 µM (inactive)	> 30 µM (inactive)	> 30 µM (inactive)	> 30 µM (inactive)	> 30 µM (inactive)	> 30 µM (inactive)	> 30 µM (inactive)	> 30 µM (inactive)	> 30 µM (inactive)	> 30 µM (inactive)
CCCCCCCCCCCCCCCCCCOP(=O)([O-])OC1CC[N+](C)(C)CC1 [PERIFOSINE]	> 30 µM (inactive)	> 30 µM (inactive)	> 30 µM (inactive)	> 30 µM (inactive)	> 30 µM (inactive)	> 30 µM (inactive)	> 30 µM (inactive)	> 30 µM (inactive)	> 30 µM (inactive)	> 30 µM (inactive)
CO[C@H]1C[C@@H]2CC[C@@H](C)[C@@](O)(O2)C(=O)C(=O)N2CCCC[C@H]2C(=O)O[C@H]([C@H](C)C[C@@H]2CC[C@@H](OP(C)(C)=O)[C@H](OC)C2)CC(=O)[C@H](C)/C=C(\C)[C@@H](O)[C@@H](OC)C(=O)[C@H](C)C[C@H](C)/C=C/C=C/C=C/1C [RIDAFOROLIMUS]	> 30 µM (inactive)	> 30 µM (inactive)	> 30 µM (inactive)	> 30 µM (inactive)	> 30 µM (inactive)	> 30 µM (inactive)	> 30 µM (inactive)	> 30 µM (inactive)	> 30 µM (inactive)	> 30 µM (inactive)
N#CC1(c2ccc(NC(=O)c3cccnc3NCc3ccncc3)cc2)CCCC1 [RIVOCERANIB]	> 30 µM (inactive)	> 30 µM (inactive)	> 30 µM (inactive)	> 30 µM (inactive)	> 30 µM (inactive)	> 30 µM (inactive)	> 30 µM (inactive)	> 30 µM (inactive)	> 30 µM (inactive)	> 30 µM (inactive)
O=c1[nH]ccc2cc(OC3CCNCC3)ccc12 [SAR-407899 FREE BASE]	> 30 µM (inactive)	> 30 µM (inactive)	> 30 µM (inactive)	> 30 µM (inactive)	> 30 µM (inactive)	> 30 µM (inactive)	> 30 µM (inactive)	> 30 µM (inactive)	> 30 µM (inactive)	> 30 µM (inactive)
CN1CCN(CCOc2cc(OC3CCOCC3)c3c(Nc4c(Cl)ccc5c4OCO5)ncnc3c2)CC1 [SARACATINIB]	> 30 µM (inactive)	> 30 µM (inactive)	> 30 µM (inactive)	> 30 µM (inactive)	> 30 µM (inactive)	> 30 µM (inactive)	> 30 µM (inactive)	> 30 µM (inactive)	> 30 µM (inactive)	> 30 µM (inactive)
